Results published in patent US10543208B2, “Treatment of gliomas using organonitro compound combination therapy” (priority 2015, dated 2020).

Test system: temozolomide-resistant EGFRvIII/Arfko GBM (NSCG) cells
Experiment: Survival of mice after intracranial injection of NSCG tumors
Assay type: in vivo, FVBN mice
Conditions: ABDNAZ 10 mg/kg intraperitoneal, temozolomide 40 mg/kg oral gavage
Experimental: Mice implanted with temozolomide-resistant EGFRvIII/Arfko GBM (NSCG) cells were treated with (i) ABDNAZ (RRx-001, 10 mg/kg, intraperitoneal injection), (ii) temozolomide (TMZ)(40 mg/kg, oral gavage), or (iii) ABDNAZ (10 mg/kg, intraperitoneal injection) and temozolomide (40 mg/kg, oral gavage).
NSCG tumors were intracranially injected into FVBN mice. Mice to be treated were treated with one of the following (i) ABDNAZ (10 mg/kg, intraperitoneal injection), (ii) temozolomide (40 mg/kg, oral gavage), or (iii) ABDNAZ (10 mg/kg, intraperitoneal injection) and temozolomide (40 mg/kg, oral gavage). In a first experiment, treatment (i.e., administration of ABDNAZ (RRx-001), temozolomide (TMZ), or both ABDNAZ and temozolomide) was started five days after intracranial injection of NSCG cells. The control population of mice contained ten mice, the group receiving only ABDNAZ had twelve mice, the group receiving only temozolomide had twelve mice, and the group receiving both ABDNAZ and temozolomide had sixteen mice. Mouse survival was monitored over time.
In a second experiment, treatment (i.e., administration of ABDNAZ (RRx-001), temozolomide (TMZ), or both ABDNAZ and temozolomide) was started ten days after intracranial injection of NSCG cells. The control population of mice contained three mice, the group receiving only ABDNAZ had five mice, the group receiving only temozolomide had four mice, and the group receiving both ABDNAZ and temozolomide had six mice. Mouse survival was monitored over time.

[1] = treatment started five days after intracranial injection of NSCG cells, control 22.2
[2] = treatment started ten days after intracranial injection of NSCG cells, control 22.1

Compound	Median Survival Time [1]	Median Survival Time [2]
Cn1nnc2c(C(N)=O)ncn2c1=O [TMZ, 3,4-dihydro-3-methyl-4-oxoimidazo[5,1-d]-as-tetrazine-8-carboxamide]	22.3 days	22.3 days
O=C(CBr)N1CC([N+](=O)[O-])([N+](=O)[O-])C1 [ABDNAZ]	25.3 days	22.5 days
